# Source: ChEMBL document CHEMBL1148621, “Evaluation of carbon-11-labeled 2beta-carbomethoxy-3beta-[4'-((Z)-2-iodoethenyl)phenyl]nortropane as a potential radioligand for imaging the serotonin transporter by PET” (J Med Chem, 2006)
# What was measured:
# [1] = target: Sodium-dependent noradrenaline transporter (Homo sapiens, UniProt P23975); assay: Displacement of [3H]nisoxetine from NET
# [2] = target: Sodium-dependent dopamine transporter (Homo sapiens, UniProt Q01959); assay: Displacement of [123I]RTI-55 from DAT
# Chain of Sodium-dependent dopamine transporter (Q01959 whole entry): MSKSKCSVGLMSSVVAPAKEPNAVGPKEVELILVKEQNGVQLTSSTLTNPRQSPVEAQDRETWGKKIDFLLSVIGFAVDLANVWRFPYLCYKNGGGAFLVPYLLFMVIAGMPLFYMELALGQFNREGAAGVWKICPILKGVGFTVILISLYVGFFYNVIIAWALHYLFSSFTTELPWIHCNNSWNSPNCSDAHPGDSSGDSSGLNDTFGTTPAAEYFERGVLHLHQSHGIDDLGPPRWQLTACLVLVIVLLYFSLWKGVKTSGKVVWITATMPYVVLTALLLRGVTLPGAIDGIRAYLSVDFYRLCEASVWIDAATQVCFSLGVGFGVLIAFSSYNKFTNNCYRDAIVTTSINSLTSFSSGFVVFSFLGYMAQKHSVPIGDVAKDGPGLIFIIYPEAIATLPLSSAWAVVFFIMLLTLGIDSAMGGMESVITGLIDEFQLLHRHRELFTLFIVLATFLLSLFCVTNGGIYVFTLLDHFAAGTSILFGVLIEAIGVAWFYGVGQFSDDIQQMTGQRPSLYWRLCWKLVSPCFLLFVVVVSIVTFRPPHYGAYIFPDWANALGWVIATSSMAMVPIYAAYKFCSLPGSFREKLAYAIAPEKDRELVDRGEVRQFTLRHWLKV
# Chain of Sodium-dependent noradrenaline transporter (P23975 whole entry): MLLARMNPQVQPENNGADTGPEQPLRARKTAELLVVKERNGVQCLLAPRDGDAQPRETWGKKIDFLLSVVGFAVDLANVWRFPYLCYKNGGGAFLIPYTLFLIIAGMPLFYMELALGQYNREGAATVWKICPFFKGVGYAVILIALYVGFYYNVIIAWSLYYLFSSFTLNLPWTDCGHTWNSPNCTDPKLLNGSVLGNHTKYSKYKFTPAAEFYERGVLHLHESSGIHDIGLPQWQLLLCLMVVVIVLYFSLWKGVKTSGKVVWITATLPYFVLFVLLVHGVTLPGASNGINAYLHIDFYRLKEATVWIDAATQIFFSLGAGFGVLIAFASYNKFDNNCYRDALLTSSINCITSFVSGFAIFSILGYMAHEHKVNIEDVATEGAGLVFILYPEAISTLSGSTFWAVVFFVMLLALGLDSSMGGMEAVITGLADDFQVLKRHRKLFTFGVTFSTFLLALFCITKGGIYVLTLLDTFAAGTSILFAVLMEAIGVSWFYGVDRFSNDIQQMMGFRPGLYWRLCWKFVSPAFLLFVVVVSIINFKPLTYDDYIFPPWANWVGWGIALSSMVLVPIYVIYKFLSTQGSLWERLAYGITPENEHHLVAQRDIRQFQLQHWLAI
smiles,measurement,setting,value
COC(=O)C1C2CCC(CC1c1ccc(/C=C\I)cc1)N2 (configuration not stated),Ki,[1],0.015 µM
same,Ki,[2],0.006 µM
